{
  "source": "patent EP1096004B1",
  "about": "“Pro-fragrance compounds” (THE PROCTER & GAMBLE COMPANY, priority 1996, dated 1997)",
  "assay": "Pro-Fragrant Hydrolysis Test (hydrolysis half-life by UV/Vis spectroscopy)",
  "type": "physicochemical",
  "settings": "acid hydrolysis at pH 0 (1N HCl), 90/10 dioxane/water, 30°C",
  "method": "Hydrolysis half-life is the measurement used to determine the ease with which the pro-fragrance compound undergoes acid hydrolysis and thereby releases its fragrance component(s) upon exposure to acid conditions. […] Preferably, pro-fragrance of the invention has a half-life at pH 2 of less than 60 minutes. For granular detergents, the more reactive pro-fragrances, that is, those with half-life at […] of less than one minute, are most suitable, although those having a half-life of less than 60 minutes at pH 0 are also useful. […]\nAll measurements are carried out using a Hewlett Packard 8452 A Diode Array Spectrophotometer using quartz 1 cm path length cuvette cells. […] The pH's are measured using an Orion 230 A standardized with pH 4 and pH 7 buffers. […]\nPro-fragrance is weighed out in a 10.00 ml volumetric flask using an analytical balance (Mettler AE 200) Precision is 1/10 mg. […] Hydrolysis time is measured, starting upon addition of the acid. […] The absorbance of the pro-fragrance solution (At) is followed at a regular series of time intervals, and the cuvette is kept in the water-bath at the above-indicated temperature between measurements. […] The wavelength at which the hydrolysis is followed is chosen at the wavelength of the absorbance maximum of the parent aldehyde or ketone.\nReaction half-lifes are determined using conventional procedures. […]",
  "data": [
    {"smiles": "CC(C)=CCCC(C)=CC(OC/C=C(\\C)CCC=C(C)C)OC/C=C(\\C)CCC=C(C)C", "note": "[Example 1, Digeranyl Citral Acetal]", "values": [
      {"measurement": "t 1/2 at 0 pH", "value": "less than one"}
    ]}
  ]
}
